Publication PMC11237654, “Optimization of quenched fluorescent peptide substrates of SARS-CoV-2 3CL^pro main protease (Mpro) from proteomic identification of P6—P6' active site specificity” (Journal of Virology, 2024)
Values joined by “and” are separate entries in the source; they are usually repeats but may differ in a detail not shown here. Equal values may be shown once.

biological target: T1, SARS-CoV-2 3CL^pro (Severe acute respiratory syndrome coronavirus 2, UniProt P0DTD1, Q3569A); settings: pH 6.9

Substance | ^app(kcat/KM)
AAVALM↓SAHHYAYR [P1-Met] | 37 M⁻¹ s⁻¹

biological target: T1, SARS-CoV-2 3CL^pro; settings: not given

Substance | ^app(kcat/KM) | cleavage at second (test) site with P1' X
AAVALM↓SAHHYAYR [P1-Met] | 37 M⁻¹ s⁻¹ | –
AAVALQ↓XAHHYAYR [S] | 1,528 M^−1s^−1 | –
AAVALX↓SAHHYAYR [P1-His] | 222 M⁻¹ s⁻¹ | –
VALQ↓GAHRVALQ↓XAHYR [Leu] | – | minimal cleavage

same assay, conditions: pH 6.9

Substance | ^app(kcat/KM)
AAVALQ↓XAHHYAYR [listing 1 of 7 here] | 1,522.0 ± 7.6 M^−1s^−1
AAVALQ↓XAHHYAYR [listing 2 of 7 here] | 45.0 ± 0.6 M⁻¹ s⁻¹
AAVALQ↓XAHHYAYR [listing 3 of 7 here] | No cleavage
AAVALQ↓XAHHYAYR [listing 4 of 7 here] | No cleavage
AAVALQ↓XAHHYAYR [listing 5 of 7 here] | No cleavage
AAVALQ↓XAHHYAYR [listing 6 of 7 here] | No cleavage
AAVALQ↓XAHHYAYR [listing 7 of 7 here] | No cleavage
AAVALQ↓XAHHYAYR [C] | No cleavage
AAVALQ↓XAHHYAYR [D] | No cleavage
AAVALQ↓XAHHYAYR [E] | No cleavage
AAVALQ↓XAHHYAYR [G] | 1,079.1 ± 12.6 M^−1s^−1
AAVALQ↓XAHHYAYR [I] | No cleavage
AAVALQ↓XAHHYAYR [K] | No cleavage
AAVALQ↓XAHHYAYR [M] | 65.8 ± 1.4 M⁻¹ s⁻¹
AAVALQ↓XAHHYAYR [N] | 71.8 ± 3.2 M⁻¹ s⁻¹
AAVALQ↓XAHHYAYR [P] | No cleavage
AAVALQ↓XAHHYAYR [S] | 1,519.1 ± 6.2 M^−1s^−1
AAVALQ↓XAHHYAYR [T] | No cleavage
AAVALQ↓XAHHYAYR [W] | No cleavage

biological target: T1, SARS-CoV-2 3CL^pro; settings: not given; remark: another data set of the same source

Substance | kcat/KM
Mca-RVALQ↓XAHYK(Dnp)RR [QFS1-A1'] | 13,131.0 M^−1·s^−1 and 13,131.0 ± 207
Mca-RVALQ↓XAHYK(Dnp)RR [QFS1-G1'] | 4,515.7 M^−1·s^−1 and 4,515.7 ± 248
Mca-RVALQ↓XAHYK(Dnp)RR [QFS1-S1'] | 13,696.8 M^−1·s^−1 and 13,696.8 ± 269
